Reference: patent US20070232563A1, “Method for Enhancing Biological Activity and/or Expanding Suitable Region for Biological Activity of Living Body Contacting with Aqueous Environment” (Kabushiki Kaisha Hayashibara Seibutsu Kagaku Kenky, priority 2004, published 2007)

Columns and labels:
[1] = tested on: short-necked clam (Ruditapes philippinarum); assay: Biological activity of short-necked clam (aqueduct extension score) in aqueous mineral solutions; assay type: in vivo; conditions: for Judgment score of biological activity: Experiment 2; for Judgment score for biological activity: total of 18 clams, 16 h
Description: Suitable region for biological activity of short-necked clam (Ruditapes philippinarum), as a fish or shellfish living in seawater, was examined by adding various saccharides to mineral aqueous solutions with various concentrations. In detail, solar salt (85% by weight of sodium chloride and 15% by weight of magnesium) as minerals was dissolved in running water kept in a container for two days to give final concentrations described in the following Table 1. Saccharide (any one of D-glucose, maltose, sucrose, maltitol, α,α-trehalose, α-maltosyl α,α-trehalose, maltotetraose and cyclic tetrasaccharide) was dissolved in the resulting salt solutions to give a final concentration of 1 w/v %, on a dry solid basis. Each of the resulting solutions was placed in a plastic bat. Eighteen pre-selected active short-necked clam in one group were placed in the bat. The bat was shaded with a black cloth and left at ambient temperature (18° C.) for 16 hours. As a control, an aqueous solar salt solution without any saccharides was prepared. Saccharides except for α-maltosyl α,α-trehalose as a saccharide derivatives thereof and cyclic tetrasaccharide were chosen from commercialized products. α-Maltosyl α,α-trehalose as saccharide derivatives of α,α-trehalose in a powder form with a purity of 98 w/w % or over was prepared by the method disclosed in Experiment 4 in Japanese Patent Kokai No. 143876/1995. Cyclic tetrasaccharide in a crystalline form with a purity of 98 w/w % or over, on a dry solid basis, was prepared by the method disclosed in Example A-7 in International Patent Publication No. WO02/10361. Influence of various saccharides was judged by observing the degree of extending aqueduct of the shellfish; 3 points: its aqueduct is well extended; 2 points: its aqueduct is slightly extended; 1 point: its aqueduct is not extended but its shells are opened; 0 point: its shells are closed. The effect on biological activity was judged by the total point of 18 shellfishes. To investigate the effective concentration range of α,α-trehalose or α-maltosyl α,α-trehalose against a mineral solution with a concentration of 1.5 w/v % or 4.5 w/v %, where α,α-trehalose or α-maltosyl α,α-trehalose was remarkably effective in Experiment 1, the following experiment using α,α-trehalose or α-maltosyl α,α-trehalose at a concentration of 0.01, 0.1, 1, 2, 3 or 4 w/v % was carried out according to the method in Experiment 1. As a control, mineral aqueous solutions with a concentration of 1.5 w/v % or 4.5 w/v % without any of the saccharides were prepared and carried out in the same manner.

[2] = tested on: unpolished rice; assay: Germination of unpolished rice in aqueous mineral solution; assay type: in vivo
Description: Suitable mineral range of aqueous mineral solutions containing saccharides was examined by using unpolished rice as an agricultural product. In detail, a commercialized purified salt as a mineral was dissolved in tap water to give a final concentration of 0.5, 1.0, 1.5, or 2.0 as described in the following Table 6. α,α-Trehalose or α-maltosyl α,α-trehalose was dissolved in the resulting solutions to give a final concentration of 1 w/v %, on a dry solid basis. Absorbent cotton was allowed to absorb the resulting solution in an appropriate amount and placed in a plastic laboratory dish with a cover. Commercialized unpolished rice grains were placed on the cotton in the dish by 20 grains per group and kept at ambient temperature (25° C.) under a light-shaded condition by covering with a black cloth. As controls, an aqueous mineral solution without saccharides, and water without saccharides and minerals were prepared. […] Effective concentration of α,α-trehalose or α-maltosyl α,α-trehalose on expanding suitable region for biological activity of unpolished rice grains were determined by examining the number of germinated unpolished rice grains and germination time as an index in accordance with the method in Experiment 6 in the aqueous mineral solution with mineral concentration of 1.5 w/v %, where α,α-trehalose or α-maltosyl α,α-trehalose was effective in Experiment 6, containing α,α-trehalose or α-maltosyl α,α-trehalose in a concentration of 0.01, 0.1, 1, 2, 3, 4 or 6 w/v %, on a dry solid basis. As a control, water without saccharides or minerals was used.

[3] = mineral 1.5 w/v %, saccharide 1 w/v %
[4] = mineral 4.5 w/v %, saccharide 1 w/v %

SMILES: OC[C@H]1O[C@H](O[C@H]2O[C@H](CO)[C@@H](O)[C@H](O)[C@H]2O)[C@H](O)[C@@H](O)[C@@H]1O [α,α-Trehalose, α,α-trehalose]
- Judgment score of biological activity ([1]; mineral 1.5 w/v %, saccharide 0.01 w/v %): 19
- Judgment score of biological activity ([1]; mineral 1.5 w/v %, saccharide 0.1 w/v %): 38
- Judgment score of biological activity [1, 3]: 44
- Judgment score of biological activity ([1]; mineral 1.5 w/v %, saccharide 2 w/v %): 47
- Judgment score of biological activity ([1]; mineral 1.5 w/v %, saccharide 3 w/v %): 38
- Judgment score of biological activity ([1]; mineral 1.5 w/v %, saccharide 4 w/v %): 21
- Judgment score of biological activity ([1]; mineral 4.5 w/v %, saccharide 0.01 w/v %): 21
- Judgment score of biological activity ([1]; mineral 4.5 w/v %, saccharide 0.1 w/v %): 35
- Judgment score of biological activity [1, 4]: 50
- Judgment score of biological activity ([1]; mineral 4.5 w/v %, saccharide 2 w/v %): 51
- Judgment score of biological activity ([1]; mineral 4.5 w/v %, saccharide 3 w/v %): 31
- Judgment score of biological activity ([1]; mineral 4.5 w/v %, saccharide 4 w/v %): 18
- Judgment score for biological activity ([1]; mineral 0 w/v %, saccharide 1 w/v %): 12
- Judgment score for biological activity ([1]; mineral 0.5 w/v %, saccharide 1 w/v %): 16
- Judgment score for biological activity ([1]; mineral 1.0 w/v %, saccharide 1 w/v %): 38
- Judgment score for biological activity [1, 3]: 44
- Judgment score for biological activity ([1]; mineral 2.0 w/v %, saccharide 1 w/v %): 47
- Judgment score for biological activity ([1]; mineral 2.5 w/v %, saccharide 1 w/v %): 51
- Judgment score for biological activity ([1]; mineral 3.0 w/v %, saccharide 1 w/v %): 54
- Judgment score for biological activity ([1]; mineral 3.5 w/v %, saccharide 1 w/v %): 50
- Judgment score for biological activity ([1]; mineral 4.0 w/v %, saccharide 1 w/v %): 50
- Judgment score for biological activity [1, 4]: 49
- Judgment score for biological activity ([1]; mineral 5.0 w/v %, saccharide 1 w/v %): 34
- Judgment score for biological activity ([1]; mineral 5.5 w/v %, saccharide 1 w/v %): 10
- Judgment score for biological activity ([1]; mineral 6.0 w/v %, saccharide 1 w/v %): 5
- Germinated grains (Number) ([2]; Experiment 7, mineral 1.5 w/v %, saccharide 0.01 w/v %, 48 hours): 0
- Germinated grains (Number) ([2]; Experiment 7, mineral 1.5 w/v %, saccharide 0.01 w/v %, 72 hours): 1
- Germinated grains (Number) ([2]; Experiment 7, mineral 1.5 w/v %, saccharide 0.01 w/v %, 96 hours): 2
- Germinated grains (Number) ([2]; Experiment 7, mineral 1.5 w/v %, saccharide 0.01 w/v %, 120 hours): 3
- Germinated grains (Number) ([2]; Experiment 7, mineral 1.5 w/v %, saccharide 0.1 w/v %, 48 hours): 0
- Germinated grains (Number) ([2]; Experiment 7, mineral 1.5 w/v %, saccharide 0.1 w/v %, 72 hours): 2
- Germinated grains (Number) ([2]; Experiment 7, mineral 1.5 w/v %, saccharide 0.1 w/v %, 96 hours): 5
- Germinated grains (Number) ([2]; Experiment 7, mineral 1.5 w/v %, saccharide 0.1 w/v %, 120 hours): 6
- Germinated grains (Number) ([2]; Experiment 7, mineral 1.5 w/v %, saccharide 1 w/v %, 48 hours): 1
- Germinated grains (Number) ([2]; Experiment 7, mineral 1.5 w/v %, saccharide 1 w/v %, 72 hours): 4
- Germinated grains (Number) ([2]; Experiment 7, mineral 1.5 w/v %, saccharide 1 w/v %, 96 hours): 6
- Germinated grains (Number) ([2]; Experiment 7, mineral 1.5 w/v %, saccharide 1 w/v %, 120 hours): 6
- Germinated grains (Number) ([2]; Experiment 7, mineral 1.5 w/v %, saccharide 2 w/v %, 48 hours): 3
- Germinated grains (Number) ([2]; Experiment 7, mineral 1.5 w/v %, saccharide 2 w/v %, 72 hours): 6
- Germinated grains (Number) ([2]; Experiment 7, mineral 1.5 w/v %, saccharide 2 w/v %, 96 hours): 7
- Germinated grains (Number) ([2]; Experiment 7, mineral 1.5 w/v %, saccharide 2 w/v %, 120 hours): 7
- Germinated grains (Number) ([2]; Experiment 7, mineral 1.5 w/v %, saccharide 3 w/v %, 48 hours): 3
- Germinated grains (Number) ([2]; Experiment 7, mineral 1.5 w/v %, saccharide 3 w/v %, 72 hours): 6
- Germinated grains (Number) ([2]; Experiment 7, mineral 1.5 w/v %, saccharide 3 w/v %, 96 hours): 6
- Germinated grains (Number) ([2]; Experiment 7, mineral 1.5 w/v %, saccharide 3 w/v %, 120 hours): 6
- Germinated grains (Number) ([2]; Experiment 7, mineral 1.5 w/v %, saccharide 4 w/v %, 48 hours): 1
- Germinated grains (Number) ([2]; Experiment 7, mineral 1.5 w/v %, saccharide 4 w/v %, 72 hours): 6
- Germinated grains (Number) ([2]; Experiment 7, mineral 1.5 w/v %, saccharide 4 w/v %, 96 hours): 6
- Germinated grains (Number) ([2]; Experiment 7, mineral 1.5 w/v %, saccharide 4 w/v %, 120 hours): 6
- Germinated grains (Number) ([2]; Experiment 7, mineral 1.5 w/v %, saccharide 6 w/v %, 48 hours): 0
- Germinated grains (Number) ([2]; Experiment 7, mineral 1.5 w/v %, saccharide 6 w/v %, 72 hours): 2
- Germinated grains (Number) ([2]; Experiment 7, mineral 1.5 w/v %, saccharide 6 w/v %, 96 hours): 2
- Germinated grains (Number) ([2]; Experiment 7, mineral 1.5 w/v %, saccharide 6 w/v %, 120 hours): 2
- Germinated grains (Number) ([2]; mineral 0.5 w/v %, saccharide 1 w/v %, 24 hours, 20 grains): 0
- Germinated grains (Number) ([2]; mineral 0.5 w/v %, saccharide 1 w/v %, 48 hours, 20 grains): 20
- Germinated grains (Number) ([2]; mineral 0.5 w/v %, saccharide 1 w/v %, 72 hours, 20 grains): 20
- Germinated grains (Number) ([2]; mineral 0.5 w/v %, saccharide 1 w/v %, 96 hours, 20 grains): 20
- Germinated grains (Number) ([2]; mineral 0.5 w/v %, saccharide 1 w/v %, 120 hours, 20 grains): 20
- Germinated grains (Number) ([2]; mineral 1.0 w/v %, saccharide 1 w/v %, 24 hours, 20 grains): 0
- Germinated grains (Number) ([2]; mineral 1.0 w/v %, saccharide 1 w/v %, 48 hours, 20 grains): 17
- Germinated grains (Number) ([2]; mineral 1.0 w/v %, saccharide 1 w/v %, 72 hours, 20 grains): 20
- Germinated grains (Number) ([2]; mineral 1.0 w/v %, saccharide 1 w/v %, 96 hours, 20 grains): 20
- Germinated grains (Number) ([2]; mineral 1.0 w/v %, saccharide 1 w/v %, 120 hours, 20 grains): 20
- Germinated grains (Number) ([2]; mineral 1.5 w/v %, saccharide 1 w/v %, 24 hours, 20 grains): 0
- Germinated grains (Number) ([2]; mineral 1.5 w/v %, saccharide 1 w/v %, 48 hours, 20 grains): 1
- Germinated grains (Number) ([2]; mineral 1.5 w/v %, saccharide 1 w/v %, 72 hours, 20 grains): 4
- Germinated grains (Number) ([2]; mineral 1.5 w/v %, saccharide 1 w/v %, 96 hours, 20 grains): 6
- Germinated grains (Number) ([2]; mineral 1.5 w/v %, saccharide 1 w/v %, 120 hours, 20 grains): 6
- Germinated grains (Number) ([2]; mineral 2.0 w/v %, saccharide 1 w/v %, 24 hours, 20 grains): 0
- Germinated grains (Number) ([2]; mineral 2.0 w/v %, saccharide 1 w/v %, 48 hours, 20 grains): 0
- Germinated grains (Number) ([2]; mineral 2.0 w/v %, saccharide 1 w/v %, 72 hours, 20 grains): 0
- Germinated grains (Number) ([2]; mineral 2.0 w/v %, saccharide 1 w/v %, 96 hours, 20 grains): 0
- Germinated grains (Number) ([2]; mineral 2.0 w/v %, saccharide 1 w/v %, 120 hours, 20 grains): 0
